We go through four molecules from paper PMC13408441, “Molecular regulation and physiological role of GOLPH3-mediated Golgi retention” (Nature Communications, 2026).

Data set [1] has as its system GOLPH3. The data set can be described thus: Click-PEG metabolic labeling of GOLPH3 S-acylation. Type of data set: cell-based, human. The following applies: HeLa, 4 hours. The protocol:
Cells are washed twice with serum-free medium with 1 mg/ml BSA and incubated indicated times with either 100 µM palmitic acid azide or 100uM unlabeled palmitic acid (control). Cells are washed 3 times with cold PBS and lysed in 50 mM Tris-HCl (pH 8.0) and 0.5% SDS. Cell lysates are subjected to click reaction with 5 kDa mPEG-Alkyne, CuSO4, TBTA and ascorbic acid for 1 h at room temperature. Samples are boiled with 4x SDS with BME sample buffer, and analyzed by WB on reducing condition on 4–20% SDS-PAGE gels.

The test system of data set [2] is PI4KIIIβ. Put plainly: GOLPH3 Golgi localization upon PtdIns(4)P depletion by PIK93. It is filed as cell-based, human. The following applies: 1 h. The protocol:
Immunofluorescence and confocal microscopy
HeLa GOLPH3-KO cells transfected with the different GOLPH3 constructs were plated at approximately 50% confluency post-transfection. Cells were washed with PBS, fixed in 4% paraformaldehyde (PFA) for 20 minutes, washed with PBS, quenched with 50 mM NH4Cl for 10 minutes, and washed again with PBS. Cells were permeabilized with 0.05% saponin in PBS for 5 minutes. Subsequently, cells were washed and blocked with 3% BSA and 0.05% saponin in PBS for 30 minutes. Primary antibodies (anti-GOLPH3 and anti-GM130) and secondary antibodies were diluted in the same buffer. After blocking, coverslips were washed and incubated with primary antibodies overnight at 4 °C, washed in PBS, and incubated for 45 minutes with secondary antibodies. Cells were then washed and stained with Hoechst for nuclear visualization. Finally, coverslips were mounted in Prolong Glass Antifade Mountant.
Images were acquired using a Zeiss LSM 980 Inverted microscope with a 63X objective, a pinhole size of 1 AU and at least 2 line-averaging or alternatively using Oympus Evident FV4000. Super-resolution images were taken using Zeiss LSM980 with Airyscan2 module, with 63×oil-immersion objectives. Images were processed using Fiji (ImageJ). Cis-to-trans Golgi linescans were recorded using the “Color Profiler” plugin (Color_Profiler. jar, https://imagej.nih.gov/ij/plugins/color -profiler.html) in Fiji software. […]
Figure S5. GOLPH3 regulation by S-acylation
A. Immunofluorescence analysis of GOLPH3 Golgi localization upon acute PtdIns(4)P depletion.
GOLPH3-KO HeLa cells expressing CERT-GFP (cyan) or GOLPH3 variants (yellow) were treated with increasing concentrations of PIK93 for 1 h. Golgi localization, assessed by colocalization with GM130 (magenta), is highlighted in the insets. Scale bar, 5 µm. […]

Data set [3] in a line: CD secondary structure of GOLPH3 proteins (BestSel fits). It is filed as physicochemical, human. The following applies: 10 μM, 100 mM NaCl, 50 mM Tris pH 7.4, 1 mM TCEP, 20 °C. The protocol:
(§1) Supplemental Material for Theodoropoulou, Nasrallah, et al 2026
Isothermal titration calorimetry […]
(§2) Circular Dichroism Spectroscopy
(§3) Circular Dichroism Spectra of GOLPH3 proteins (at 10 μM in 100 mM NaCl, 50 mM Tris pH 7.4 and 1 mM TCEP) were collected with a Chirascan V100 (AppliedPhotophysics), using a 1 mm path length cuvette, at 20 °C, in the 200-260 nm range. Thermal denaturation experiments […]
(§4) every 1 °C, with a temperature ramp speed of 1 °C/min and an equilibration time of […]
Table S2: Fits of CD spectra to fractions of secondary structure for Golph3 WT and various mutants of it, carried out with the BestSel server

The nature of data set [4]: SEC-MALS of GOLPH3 constructs. Type of data set: physicochemical, human. The following applies: 12 mg/mL, 250 mM NaCl, 50 mM Tris pH 8.0, 1 mM TCEP. The protocol: Supplemental Material for Theodoropoulou, Nasrallah, et al 2026 buffer. Pooled fractions were concentrated to the required concentration using a MWCO concentrator (Millipore) with a cutoff of 10 kDa.
Size exclusion chromatography coupled to multi-angle light scattering
The molecular weights of the tested constructs were determined by size exclusion chromatography coupled to multi-angle light scattering (SEC-MALS). The mass measurements were performed on a UltiMate3000 HPLC system equipped with a 3 angles miniDAWN TREOS static light scattering detector (Wyatt Technology). The sample volumes of 5−10 μl at a concentration of 12 mg/mL, were applied to a Superdex 200 5/150 GL column (Cytiva) previously equilibrated with 250 mM NaCl, 50 mM Tris pH 8.0, 1 mM TCEP at a flow rate of 0.08 mL/min. The data were analyzed using the ASTRA 6.1 software package (Wyatt technology), using the absorbance at 280 nm and the theoretical extinction coefficient for concentration measurements.
Nuclear Magnetic Resonance (NMR) Spectroscopy
All proteins used for NMR experiments were designed on the GOLPH3-4G background due to its higher stability and solubility. Recombinant proteins were prepared with the isotope enrichment scheme appropriate for each experiment (i.e. 15N-only or 15N, 13C) in 20 mM MES buffer pH 6.5 with 250 mM NaCl and 10% 2H2O. Lower salt, even by 10%, yielded much degraded spectra. […]
(In gel filtration, larger molecules generally elute earlier.)

Data set [5] is described as follows: CD thermal denaturation of GOLPH3 proteins. Type of data set: physicochemical, human. The following applies: CD at 207 nm, 20 to 95 °C at 1 °C/min, 10 μM protein, 100 mM NaCl, 50 mM Tris pH 7.4, 1 mM TCEP. The protocol: as §1
Isothermal titration calorimetry
Isothermal titration calorimetry (ITC) experiments were performed on a MicroCal PEAQ-ITC (Malvern Panalytical), with GOLPH3 variants being in a buffer containing 250 mM NaCl, 50 mM Tris pH 8.0 and 1 mM TCEP. LCS peptides were synthesised and delivered as lyophilised powder (Genscript). The peptides were dissolved in the protein buffer and their concentrations were calculated based upon their absorbance at 280 nm and their corresponding molar extinction coefficient. Experiments consisted of titrations of a single 0.4 µL injection followed […]
GOLPH3 proteins at a 100 μM concentration. Experiments were performed at 25 °C in triplicate (n = 3), with injection duration of 4 s, injection spacing of 150 s, stir speed of 750 rpm, and reference power of 7 μcal/s. Data were processed and plotted using MicroCal PEAQ‐ITC Analysis Software and fitted to a one‐site binding model.
as §2, §3, §4

With `COc1ccc(N2CCN(C(=O)c3cc4c(s3)-c3ccccc3S(=O)(=O)C4)CC2)cc1` [ML349], in data set [1] (10 µM), the “click-PEG signal upon ML348/ML349” value is “increased the click-PEG signal”.

As for `CC(=O)Nc1nc(C)c(-c2ccc(Cl)c(S(=O)(=O)NCCO)c2)s1` [PIK93], the “effect of PIK93 on localization of CERT” value in data set [2] (CERT-GFP, HeLa) was “completely relocate CERT to the cytosol”. Further, the “effect of PIK93 on Golgi localization of GOLPH3-C84A” value in data set [2] (GOLPH3-KO HeLa expressing C84A) was “sensitive to PIK93”. Besides, the “effect of PIK93 on Golgi localization of GOLPH3 WT” value in data set [2] (GOLPH3-KO HeLa expressing GOLPH3 WT, increasing PIK93 concentrations, versus CERT) is recorded as “significantly more resistant to PtdIns(4)P depletion”. The “effect of PIK93 on Golgi localization of GOLPH3-R90L” value in data set [2] (GOLPH3-KO HeLa expressing R90L) is “insensitive to PIK93”. The “effect of PIK93 on Golgi localization of GOLPH3 mutated at Cys108 and Cys122” value in data set [2] (GOLPH3-KO HeLa) was “strongly Golgi-associated, PIK93-insensitive form”.

As to `CCCCCCCCCC[C@@H]1C(=O)O[C@H]1CCc1ccc(OC)c(OC)c1` [Palmostatin B], the “click-PEG signal upon Palmostatin B” value in data set [1] (50 µM) is reported as “increased the click-PEG signal”.

With “GOLPH3 WT: recombinant human GOLPH3 (Q9H4A6, residues 52-298)”, in data set [3], the “% alpha” value was 41%, the “% beta parallel” value worked out at 0%, the “% beta-antiparallel” value is on record as 7% and the “% others” value turned out to be 36%. For the same molecule, in data set [3], the “% turn” value came out at 16%. In data set [4], the oligomeric state result is “monomeric”. In data set [5], the “Tm / melting temperature” value is 52.5 °C.
